In PubChem BioAssay AID1996:
In brackets after ≈: the same amount, converted by molar mass.

Settings: buffer; pH 7.4; 200.0 µM

Point of comparison: CC(=O)c1ccc(NC(=O)CCc2ccc(C)o2)cc1, solubility kinetic 36.7 µg/mL (≈ 135 µM). Against it:
- CC(C)c1ccccc1OCC(=O)N1CCCN(C)CC1 — higher, > 43.6 µg/mL
- COc1ccc(C)cc1NC(=O)NCc1ccccc1F — 18-fold lower, 2 µg/mL (≈ 6.94 µM)
- Cc1onc(C(=O)NCCc2ccccc2)c1[N+](=O)[O-] — higher, > 41.3 µg/mL
- O=C(NCc1cccnc1)C1CC(c2ccccc2O)=NO1 (stereo unspecified) — higher, > 44.6 µg/mL
- O=C(OCC(=O)N1CCCCC1)c1cc(=O)[nH]c2ccccc12 — higher, > 47.2 µg/mL
- CCOc1ccc(Nc2cc(=O)[nH]c(=O)[nH]2)cc1 — 4.8-fold lower, 7.6 µg/mL (≈ 30.7 µM)
- O=C(OCC(=O)C12CC3CC(CC(C3)C1)C2)c1ccccn1 — higher, > 44.9 µg/mL
- COc1ccc(C(=O)NCc2ccc3c(c2)CCO3)cc1 — within 1.5-fold, 32.5 µg/mL (≈ 115 µM)
- Cc1ccc(N2C(=O)NC(=O)/C(=C\C=C\c3ccco3)C2=O)cc1 — 4.2-fold lower, 8.8 µg/mL (≈ 27.3 µM)
- O=C(COC(=O)Cc1cccs1)Nc1cc(S(=O)(=O)N2CCOCC2)ccc1Cl — 1.5-fold higher, 56.5 µg/mL (≈ 123 µM)
- Cn1c(O)c(/C=C2\C=Nc3ccc(Br)cc32)c(=O)n(C)c1=O — 41-fold lower, 0.9 µg/mL (≈ 2.48 µM)
- Cc1ccc(C(=O)NCCNC(=O)c2ccco2)cc1C — within 1.5-fold, 38.8 µg/mL (≈ 136 µM)
- COc1ccc(CC(=O)NCCC2=CCCCC2)cc1 — higher, > 41 µg/mL
- OCC1CCCCN1C(=S)Nc1ccc(Cl)cc1Cl (stereo unspecified) — higher, > 47.9 µg/mL
- O=C(Nc1ccccc1Cl)NC1CCCCCCC1 — 92-fold lower, 0.4 µg/mL (≈ 1.42 µM)
- COc1ccc(S(=O)(=O)N2CCCCCC2)cc1NC(=O)Cc1ccc(OC)c(OC)c1 — 1.7-fold lower, 22.1 µg/mL (≈ 47.8 µM)
- CC(C)(C)C(=O)N1CCN(C(=O)c2ccco2)CC1 — higher, > 39.6 µg/mL
- Cc1ccc(Cn2c(=O)c3c(ncn3C)n(C)c2=O)cc1 — higher, > 42.6 µg/mL
- COc1ccc(CCN(C)Cc2cccc3ccccc23)cc1OC — within 1.5-fold, 37.1 µg/mL (≈ 111 µM)
- CC(=O)c1ccc(-c2ccc(C(=O)NC3CCCCCC3)o2)cc1 — 5.5-fold lower, 6.7 µg/mL (≈ 20.6 µM)
- S=C(NC1CCCCC1)N1CCN(c2ncccn2)CC1 — 3.8-fold lower, 9.6 µg/mL (≈ 31.4 µM)
- COc1cc(/C=C/c2nc3ccccc3c(=O)[nH]2)cc(Cl)c1O — within 1.5-fold, 43.2 µg/mL (≈ 131 µM)
- COc1ccc(OCC(O)CNC(=O)Nc2cc(C)cc(C)c2)cc1 (stereo unspecified) — 9.7-fold lower, 3.8 µg/mL (≈ 11 µM)
- N#CCCN1C(=O)C2(OCCO2)c2ccccc21 — not separable, > 36.6 µg/mL
- O=C(CNC(=O)c1ccc(C(F)(F)F)cc1)NC1CC1 — higher, > 42.9 µg/mL
- Cc1ccc(OCC(=O)Nc2ccccc2F)cc1C — 11-fold lower, 3.2 µg/mL (≈ 11.7 µM)
- CCNc1nc(NC(C)C)nc(N(C#N)C(C)C(=O)N(CC)CC)n1 (stereo unspecified) — higher, > 52.3 µg/mL
- Cc1ccsc1C(=O)OCC(=O)Nc1ccc(Cl)cn1 — 2.5-fold lower, 14.7 µg/mL (≈ 47.3 µM)
- c1ccc2nc3c(cc2c1)CCCCC3 — 11-fold lower, 3.4 µg/mL (≈ 17.2 µM)
- Nc1ccc2nc(COc3ccccc3)[nH]c2c1 — 3-fold lower, 12.4 µg/mL (≈ 51.8 µM)
- N#C/C(=C\c1ccc(OCC(N)=O)cc1)S(=O)(=O)c1ccccc1 — 3.9-fold lower, 9.4 µg/mL (≈ 27.5 µM)
- CCOc1ccc(NC(=S)NC23CN4CN(CN(C4)C2)C3)cc1 — higher, > 50 µg/mL
- CC(CN1CCCC1)OC(=O)c1ccc(Cl)cc1.Cl (stereo unspecified) — higher, > 45.6 µg/mL
- O=C(NCCCCc1ccccc1)Nc1ccc(F)cc1 — 16-fold lower, 2.3 µg/mL (≈ 8.03 µM)
- CCOc1cccc2sc(=NC(=O)c3ccco3)n(CC(=O)OC)c12 — 18-fold lower, 2 µg/mL (≈ 5.55 µM)
- COc1cc(C2=NC(CO)(CO)CO2)cc(OC)c1OC — higher, > 44.6 µg/mL
- Cc1noc(C)c1CSc1ccccc1C(=O)O — higher, > 39.5 µg/mL
- Cc1cc(C)c(N2C(=O)CCCC2=O)c(Cl)c1 — higher, > 37.8 µg/mL
- CN1CCCN(C(=O)c2ccc(Br)s2)CC1 — higher, > 45.5 µg/mL
- O=C(CNC(=O)c1ccccc1F)OCC(=O)c1ccc(Cl)s1 — higher, > 53.4 µg/mL
- C/C(=N/OC(=O)c1cccc(C(F)(F)F)c1)c1cnccn1 — 10-fold lower, 3.5 µg/mL (≈ 11.3 µM)
- COC(=O)NC1c2ccccc2Oc2ccc(C)cc21 (stereo unspecified) — lower, < 0.6 µg/mL
- Cc1ccccc1CC(=O)N1CCCc2ccccc21 — within 1.5-fold, 36.5 µg/mL (≈ 138 µM)
- Nc1cccc(-c2cn3cccnc3n2)c1 — within 1.5-fold, 25.9 µg/mL (≈ 123 µM)
- O=C(COC(=O)Cc1ccc(S(=O)(=O)N2CCOCC2)s1)Nc1ccccc1 — 1.6-fold higher, 57 µg/mL (≈ 134 µM)
- COc1ccc2[nH]c(C(=O)N(C)c3ccc(F)cc3F)cc2c1 — lower, < 0.3 µg/mL
- Cc1cnc(NC(=O)C2CCC(C(C)(C)C)CC2)s1 (stereo unspecified) — lower, < 0.3 µg/mL
- C=CCNC(=O)/C(C#N)=C/c1ccc(C)o1 — not separable, > 32.4 µg/mL
- COc1ccc(NS(=O)(=O)c2cccc(C(=O)O)c2)cc1S(=O)(=O)N1CCCCC1 — higher, > 68.2 µg/mL
- COc1cc2c(cc1OC)CN(CC(=O)NC(=O)NC(C)(C)C)CC2 — within 1.5-fold, 45.9 µg/mL (≈ 131 µM)
- COC(=O)C1=C(C)N(C)C(=O)NC1c1c(OC)ccc2ccccc12 (stereo unspecified) — 6.8-fold lower, 5.4 µg/mL (≈ 15.9 µM)
- COc1cc(CNc2nc3ccccc3s2)cc(OC)c1OC — within 1.5-fold, 48.4 µg/mL (≈ 146 µM)
- CCOC(=O)C1(Cc2ccccc2)CCCN(C2CCCC2)C1 (stereo unspecified) — higher, > 47.3 µg/mL
- c1ccc2sc(C3CCNCC3)nc2c1 — not separable, > 32.7 µg/mL
- O=C(COC(=O)C1=Cc2ccccc2OC1)NCc1ccco1 — 6.6-fold lower, 5.6 µg/mL (≈ 17.9 µM)
- CC(C)(C)N(Cc1ccccc1)C(=O)CN1C(=O)c2ccccc2C1=O — 46-fold lower, 0.8 µg/mL (≈ 2.28 µM)
- COc1cccc(CNC(=O)CCNC(=O)c2ccccc2OC)c1 — higher, > 51.4 µg/mL
- Cc1nnc(SC(C)C(=O)NC2CCCCC2)s1 (stereo unspecified) — higher, > 42.8 µg/mL
- CC(=O)c1cccc(NC(=O)CO/N=C2/CCCc3nonc32)c1 — within 1.5-fold, 45.7 µg/mL (≈ 139 µM)
- NC(=O)C1CCN(C(=O)c2cc(Cl)c3c(c2)OCCO3)CC1 — higher, > 48.7 µg/mL
- Cc1ccc(C(C)(c2ccc(N)cc2)c2ccc(N)cc2)cc1 — 3.6-fold lower, 10.3 µg/mL (≈ 34.1 µM)
- NS(=O)(=O)c1ccc(CNC(=S)NC2CCCCC2)cc1 — within 1.5-fold, 47.9 µg/mL (≈ 146 µM)
- COc1cccc(OC)c1C(=O)Nc1ccc(Br)c(C(=O)c2ccccc2)c1 — 8.7-fold lower, 4.2 µg/mL (≈ 9.54 µM)
- CCOC(=O)Cc1csc(NC(=O)c2ccc([N+](=O)[O-])cc2[N+](=O)[O-])n1 — higher, > 57 µg/mL
- Cc1cc2cc(CNC(=S)NC3CCCCC3)ccc2[nH]1 — 2.9-fold lower, 12.5 µg/mL (≈ 41.5 µM)
- COc1cccc(CN2C(=O)NC3(CCCCCC3)C2=O)c1 — higher, > 45.4 µg/mL
- CNS(=O)(=O)c1ccc(N2CCCC2)c([N+](=O)[O-])c1 — higher, > 42.8 µg/mL
- CCc1cc(=O)[nH]c(SC/C=C/c2ccccc2)n1 — 3.4-fold lower, 10.7 µg/mL (≈ 39.3 µM)
- CCOc1ccccc1NC(=O)c1ccccc1-c1ccccc1 — 4.3-fold lower, 8.5 µg/mL (≈ 26.8 µM)
- CN(C)/C=N/S(=O)(=O)c1ccc(Cl)c(Cl)c1 — higher, > 42.2 µg/mL
- O=[N+]([O-])c1ccc(NCCOc2ccccc2Cl)nc1 — 22-fold lower, 1.7 µg/mL (≈ 5.79 µM)
- O=C1C2C3CCC(O3)C2C(=O)N1c1cccc(F)c1 (stereo unspecified) — within 1.5-fold, 39.2 µg/mL (≈ 150 µM)
- CCc1cccc(NS(=O)(=O)c2csc(C(N)=O)c2)c1 — higher, > 46.6 µg/mL
- Cn1c(N)c(C(=O)CN2CCc3ccccc3C2)c(=O)n(C)c1=O — higher, > 49.3 µg/mL
- O=C(COc1ccc(Cl)cc1)NCCc1cnc[nH]1 — higher, > 42 µg/mL
- CN(c1ccc(OCC(=O)Nc2ccccc2C(=O)O)cc1)S(=O)(=O)c1ccc(Cl)cc1 — higher, > 71.2 µg/mL
- CCCCC(=O)Nc1cccc(C(C)O)c1 (stereo unspecified) — not separable, > 33.2 µg/mL
- CN1CCN(C(=O)c2cc(=O)c3cc(Cl)ccc3o2)CC1 — higher, > 46 µg/mL
- CN(CC(=O)Nc1ccccc1C(F)(F)F)C(=O)C1CC1 — higher, > 45 µg/mL
- CCC(NC(=S)NC1CCCCC1)c1ccccc1 (stereo unspecified) — 9.7-fold lower, 3.8 µg/mL (≈ 13.7 µM)
- COc1ccc(NC(=O)C(Cc2cc(C)cc(C)c2)C(C)C(=O)O)cc1 (stereo unspecified) — within 1.5-fold, 36.5 µg/mL (≈ 103 µM)
- N#Cc1ccc(C(=O)NC2=NCCS2)cc1 — 1.7-fold lower, 21.8 µg/mL (≈ 94.3 µM)
- CC(=O)Nc1ncc(Cc2ccc(Cl)cc2Cl)s1 — 37-fold lower, 1 µg/mL (≈ 3.32 µM)
- CN(C(=O)C1CCC(=O)N(C2CC2)C1)C1CCCCC1 (stereo unspecified) — higher, > 41.8 µg/mL
- CCC(CC)C(=O)c1c[nH]c(C(=O)NCc2ccccn2)c1 — higher, > 44.9 µg/mL
